Like-named read-outs stand apart in the source and are kept apart here.
Legend:
AR nuclear translocation = AR nuclear translocation by immunocytochemistry / immunofluorescence; format: cell-based
AR activity = assay: AR luciferase assay; format: cell-based
[1] = cited from earlier work
[2] = test system: AR and prostate-specific antigen (PSA) protein expression; assay: AR and PSA protein expression (western blot) in LNCaP and Enzalutamide resistant cells; format: cell-based
[3] = test system: LuCaP136 castration resistant xenograft tumors which express AR-V7; assay: Xenograft model of CRPC in mice (LuCaP136); format: in vivo
Description: Galeterone was tested in a xenograft model of CRPC in mice. […] AR-V7 was detected in LuCaP136 castration resistant xenograft tumors using RT-PCR.

PSA levels = assay: PSA response of CRPC patients by AR C-terminal status; format: in vivo, human; settings: for maximal reductions in PSA levels: patients with AR C-terminal loss
Description: A group of six patients naive to previous CRPC therapy was analyzed with respect to AR status. Four of the six patients were identified as having AR receptors with a C-terminal loss as determined by the evaluation of C-terminal androgen receptor expression in relation to N-terminal androgen receptor expression. All four of the patients having this AR variant had maximal reductions in PSA levels of at least 50%.

CYP17 lyase = target: T1, CYP17 lyase (Homo sapiens, UniProt P05093); settings: steroidogenic pathway; cited from earlier work
T1 sequence (P05093 1-508): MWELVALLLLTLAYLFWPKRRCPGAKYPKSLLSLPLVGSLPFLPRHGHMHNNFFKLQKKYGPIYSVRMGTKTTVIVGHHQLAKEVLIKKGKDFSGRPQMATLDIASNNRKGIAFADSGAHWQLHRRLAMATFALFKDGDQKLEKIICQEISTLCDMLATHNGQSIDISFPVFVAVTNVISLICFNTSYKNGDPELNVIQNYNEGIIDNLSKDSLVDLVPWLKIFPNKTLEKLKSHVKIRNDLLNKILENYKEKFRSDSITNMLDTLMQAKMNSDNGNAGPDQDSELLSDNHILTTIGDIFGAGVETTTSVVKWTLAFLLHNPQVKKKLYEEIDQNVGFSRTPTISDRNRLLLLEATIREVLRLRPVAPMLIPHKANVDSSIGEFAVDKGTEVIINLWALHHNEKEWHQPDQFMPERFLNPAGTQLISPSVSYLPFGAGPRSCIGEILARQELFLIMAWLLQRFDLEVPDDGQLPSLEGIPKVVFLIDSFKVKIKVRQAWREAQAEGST

full-length AR and AR-V7 = target: T2, full-length AR and AR-V7 (Homo sapiens, UniProt P10275, H875Y); format: cell-based
T2 construct: CWR22rv1 cell line which constitutively expresses both AR and AR-V7; endogenous in cells; host or cells: CWR22rv1
T2 sequence (P10275 1-920 H875Y): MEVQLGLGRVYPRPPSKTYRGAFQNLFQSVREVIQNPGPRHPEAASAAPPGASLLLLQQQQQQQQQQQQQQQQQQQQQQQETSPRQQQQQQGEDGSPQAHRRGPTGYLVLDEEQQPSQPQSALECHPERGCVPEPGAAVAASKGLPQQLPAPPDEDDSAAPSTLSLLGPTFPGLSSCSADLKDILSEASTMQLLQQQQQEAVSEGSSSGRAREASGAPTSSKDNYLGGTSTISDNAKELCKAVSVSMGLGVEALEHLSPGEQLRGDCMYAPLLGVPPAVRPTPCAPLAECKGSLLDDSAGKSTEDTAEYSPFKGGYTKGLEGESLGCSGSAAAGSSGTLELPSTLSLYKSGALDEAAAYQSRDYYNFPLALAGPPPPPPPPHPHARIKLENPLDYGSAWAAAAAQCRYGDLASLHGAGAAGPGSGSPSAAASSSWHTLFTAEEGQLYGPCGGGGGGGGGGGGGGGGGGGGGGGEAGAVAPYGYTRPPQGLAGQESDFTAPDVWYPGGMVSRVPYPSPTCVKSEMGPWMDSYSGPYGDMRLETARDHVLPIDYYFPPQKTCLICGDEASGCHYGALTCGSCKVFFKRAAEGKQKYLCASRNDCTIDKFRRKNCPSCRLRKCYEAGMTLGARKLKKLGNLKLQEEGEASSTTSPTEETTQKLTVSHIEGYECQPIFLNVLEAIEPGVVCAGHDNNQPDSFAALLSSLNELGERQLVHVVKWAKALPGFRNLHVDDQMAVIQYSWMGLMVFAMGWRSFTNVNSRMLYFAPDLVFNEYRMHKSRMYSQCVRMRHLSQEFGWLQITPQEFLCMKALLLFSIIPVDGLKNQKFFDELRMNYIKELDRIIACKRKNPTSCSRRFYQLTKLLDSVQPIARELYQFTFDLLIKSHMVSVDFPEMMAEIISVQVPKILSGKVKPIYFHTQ
Description: An experiment to detect expression of full-length AR and AR-V7 variant proteins was conducted in a CWR22rv1 cell line which constitutively expresses both AR and AR-V7. […] See also FIG. 4.

CWR22rv1 cell line = assay: Cell proliferation in CWR22rv1 cell line; format: cell-based
[4] = test system: AR-dependent gene expression; assay: AR-dependent gene expression in cells with wild-type AR and AR point mutations; format: cell-based
Source text: These cells also express AR receptors with F876L mutation.

[5] = test system: LNCaP cells, CRPC cells, Enzalutamide resistant cell lines 49F and 49C; assay: Crystal violet and MTT proliferation/viability assays in LNCaP, CRPC and Enzalutamide resistant (49C, 49F) cells; format: cell-based
[6] = enzalutamide-responsive CPRC cell line
[7] = patients expressing AR-V7 mRNA in circulating tumor cells

Structure (SMILES): C[C@]1(O)CC[C@H]2[C@@H]3CCC4=CC(=O)CCC4=C3C=C[C@@]21C [Compound R1881, reference compound]
- AR translocation to the nucleus (AR nuclear translocation): caused robust AR translocation to the nucleus

Structure (SMILES): CNC(=O)c1ccc(N2C(=S)N(c3ccc(C#N)c(C(F)(F)F)c3)C(=O)C2(C)C)cc1F [Enzalutamide, reference compound]
- AR activity (luciferase) (AR activity; [6]): reduced AR activity
- patients for which PSA levels dropped by 50% ([1]; AR-V7 negative patients): 53%
- time to progression ([1]; AR-V7 negative patients): 6.1 months
- PSA decline [1, 7]: no PSA decline
- time to progression [1, 7]: 2.1 months
- AR and PSA protein expression levels ([2]; LNCaP cells): reduced AR and PSA protein expression levels

Structure (SMILES): C[C@]12CC[C@H](O)CC1=CC[C@@H]1[C@@H]2CC[C@]2(C)C(n3cnc4ccccc43)=CC[C@@H]12 [Galeterone, 3-β-Hydroxyl 17-(1H-benzimidazol-1-yl)androsta-5,16-diene]
- AR nuclear translocation (immunofluorescence, FIG. 15B) (AR nuclear translocation; cytoplasmic vs nuclear green staining vs. control): reduces AR nuclear translocation
- response of castration resistant tumors which express AR-V7 [3]: respond
- AR activity (luciferase) (AR activity; Enzalutamide resistant cell lines 49C and 49F): reduced AR activity in all three cell lines
- AR activity (luciferase) (AR activity; [6]): reduced AR activity in all three cell lines
- AR activity (summary) (AR activity; summary of the data): strongly inhibits AR activity
- maximal reductions in PSA levels (PSA levels; 12 weeks at 2550 mg daily): at least 50%
- maximal reductions in PSA levels (PSA levels; 12 weeks at 2550 mg daily, listed as galeterone): > 50%
- patients with maximal PSA response (PSA levels; patients with C-terminal AR loss): 4/4
- reduction in PSA (PSA levels; two patients without loss of the AR C-terminal domain, 12 weeks at 2550 mg daily): did not respond as strongly
- inhibition of CYP17 lyase (CYP17 lyase): potent inhibitor
- abiraterone and enzalutamide resistance due to AR splice variants (full-length AR and AR-V7): successfully overcomes abiraterone and enzalutamide resistance due to AR splice variants
- cell proliferation (CWR22rv1 cell line): reduces cell proliferation
- AR-dependent gene expression [4]: reduces AR-dependent gene expression
- AR and PSA protein expression levels ([2]; Enzalutamide resistant cell line): still observed in resistant cells
- AR and PSA protein expression levels ([2]; LNCaP cells): induced a greater reduction in AR and prostate-specific antigen (PSA) protein expression
- anti-proliferative effects ([5]; crystal violet and MTT assays, LNCaP cells, CRPC cells, Enzalutamide resistant cells): had anti-proliferative effects
- castration-resistant LNCaP growth and enzalutamide-resistant cell growth in vitro ([5]; summary of the data): suppresses castration-resistant LNCaP growth as well as enzalutamide-resistant cell growth
